Measurements reported in US10954228B2 (NATIONAL INSTITUTES OF HEALTH, UNITED STATES DEPARTMENT OF …, priority 2016, dated 2021).
pIC50: −log10 of the molar value.

Assays:
MiaPaCa2 cells = assay: cell-based HT lactate assay by colorimetric/fluorometric detection (cellular inhibition of lactate production); conditions: Homo sapiens, MIA PaCa-2, assay of Example 6
Method: This example describes a cell-based metabolite assay by colorimetric/fluorometric detection employed in the characterization of a compound of formula (I) in an embodiment of the invention.
Cell-based HT Lactate assay is a miniaturized Biovision Lactate Colorimetric/Fluorometric Assay Kit (Cat #K607-100). The assay is roughly a 3.5 hour assay run in a 1536 plate format. Cell number optimization should be run for each cell line to achieve an optimal number in which lactate production equals roughly 90% of the standard curve range. Cell number per well optimization has been performed with the following cell lines: MiaPaCa2—500 cells/well, SNU398—500 cells/well, and P493—500 cells/well.

Human LDHA = Human LDHA (Homo sapiens (Human), UniProt P00338); assay: human LDHA primary biochemical assay; conditions: biochemical LDHA inhibitory activity, assay of Example 1; activity level classes defined in nM
Method in brief: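 Human LDHA at 2 nM with 0.06 mM NADH and 0.2 mM sodium pyruvate in 200 mM Tris HCl pH 7.4, 100 μM EDTA, 0.01% TWEEN-20 (final). NADH consumption coupled to resazurin/diaphorase (0.037 mM; 0.133 mg/mL); inhibition read by fluorescence.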

SMILES | pIC50 (MiaPaCa2 cells) | IC50 (Human LDHA)
CC1CC=C(c2cc(-c3nn(-c4nc(C(=O)O)cs4)c(CC4CC4)c3Cc3ccc(S(N)(=O)=O)c(F)c3)ccc2F)CC1 (stereo not shown) [Compound 101, 2-(5-(cyclopropylmethyl)-3-(6-fluoro-4′-methyl-2′,3′,4′,5′-tetrahydro-[1,1′-biphenyl]-3-yl)-4-(3-fluoro-4-sulfamoylbenzyl)-1H-pyrazol-1-yl)thiazole-4-carboxylic acid] | > 6.00 | < 100 nM
NS(=O)(=O)c1ccc(Cc2c(-c3ccc(F)c(C4=CCC(C(F)(F)F)CC4)c3)nn(-c3nc(C(=O)O)cs3)c2CC2CC2)cc1F (stereo not shown) [Compound 102, 2-(5-(cyclopropylmethyl)-3-(6-fluoro-4′-(trifluoromethyl)-2′,3′,4′,5′-tetrahydro-[1,1′-biphenyl]-3-yl)-4-(3-fluoro-4-sulfamoylbenzyl)-1H-pyrazol-1-yl)thiazole-4-carboxylic acid] | > 6.00 | < 100 nM
CC1CCCC=C1c1cc(-c2nn(-c3nc(C(=O)O)cs3)c(CC3CC3)c2Cc2ccc(S(N)(=O)=O)c(F)c2)ccc1F (stereo not shown) [Compound 103, 2-(5-(cyclopropylmethyl)-3-(6-fluoro-2′-methyl-2′,3′,4′,5′-tetrahydro-[1,1′-biphenyl]-3-yl)-4-(3-fluoro-4-sulfamoylbenzyl)-1H-pyrazol-1-yl)thiazole-4-carboxylic acid] | > 6.00 | < 100 nM
COC1CC=C(c2cc(-c3nn(-c4nc(C(=O)O)cs4)c(CC4CC4)c3Cc3ccc(S(N)(=O)=O)c(F)c3)ccc2F)CC1 (stereo not shown) [Compound 104, 2-(5-(cyclopropylmethyl)-3-(6-fluoro-4′-methoxy-2′,3′,4′,5′-tetrahydro-[1,1′-biphenyl]-3-yl)-4-(3-fluoro-4-sulfamoylbenzyl)-1H-pyrazol-1-yl) thiazole-4-carboxylic acid] | > 6.00 | < 100 nM
CCC#Cc1cc(-c2nn(-c3nc(C(=O)O)cs3)c(CC3CC3)c2Cc2ccc([S+](N)(=O)[O-])c(F)c2)ccc1F [Compound 109, 2-(3-(3-(but-1-yn-1-yl)-4-fluorophenyl)-5-(cyclopropylmethyl)-4-(3-fluoro-4-sulfamoylbenzyl)-1H-pyrazol-1-yl)thiazole-4-carboxylic acid] | > 6.00 | –
CC(C)c1ccc(-c2cc(-c3nn(-c4nc(C(=O)O)cs4)c(CC4CC4)c3Cc3ccc(S(N)(=O)=O)c(F)c3)ccc2F)cc1 [Compound 142, 2-(5-(cyclopropylmethyl)-3-(6-fluoro-4′-isopropyl-[1,1′-biphenyl]-3-yl)-4-(3-fluoro-4-sulfamoylbenzyl)-1H-pyrazol-1-yl)thiazole-4-carboxylic acid] | > 6.00 | –
Cc1cc(C#Cc2cccc(-c3nn(-c4nc(C(=O)O)cs4)c(CCC4CC4)c3Cc3ccc(S(N)(=O)=O)c(F)c3)c2)c(C)s1 [Compound 238, 2-(5-(2-cyclopropylethyl)-3-(3-((2,5-dimethylthiophen-3-yl)ethynyl)phenyl)-4-(3-fluoro-4-sulfamoylbenzyl)-1H-pyrazol-1-yl)thiazole-4-carboxylic acid] | – | 100 to 1000 nM
Cc1cc(C#Cc2cccc(-c3nn(-c4nc(C(=O)O)cs4)c(CCC4CC4)c3Cc3ccc(S(N)(=O)=O)c(F)c3)c2)cs1 [Compound 239, 2-(5-(2-cyclopropylethyl)-4-(3-fluoro-4-sulfamoylbenzyl)-3-(3-((5-methylthiophen-3-yl)ethynyl)phenyl)-1H-pyrazol-1-yl)thiazole-4-carboxylic acid] | – | 100 to 1000 nM
Cc1cc(C#Cc2cccc(-c3nn(-c4nc(C(=O)O)cs4)c(CC4CC4)c3Cc3ccc(S(N)(=O)=O)c(F)c3)c2)cs1 [Compound 240, 2-(5-(cyclopropylmethyl)-4-(3-fluoro-4-sulfamoylbenzyl)-3-(3-((5-methylthiophen-3-yl)ethynyl)phenyl)-1H-pyrazol-1-yl)thiazole-4-carboxylic acid] | – | < 100 nM
Cc1cc(C#Cc2cccc(-c3nn(-c4nc(C(=O)O)cs4)c(CC4CC4)c3Cc3ccc(S(N)(=O)=O)c(F)c3)c2)c(C)s1 [Compound 241, 2-(5-(cyclopropylmethyl)-3-(3-((2,5-dimethylthiophen-3-yl)ethynyl)phenyl)-4-(3-fluoro-4-sulfamoylbenzyl)-1H-pyrazol-1-yl)thiazole-4-carboxylic acid] | – | 100 to 1000 nM
Cc1ccc(C(=O)Cc2cccc(-c3nn(-c4nc(C(=O)O)cs4)c(CC4CC4)c3Cc3ccc(S(N)(=O)=O)c(F)c3)c2)s1 [Compound 242, 2-(5-(cyclopropylmethyl)-4-(3-fluoro-4-sulfamoylbenzyl)-3-(3-(2-(5-methylthiophen-2-yl)-2-oxoethyl)phenyl)-1H-pyrazol-1-yl)thiazole-4-carboxylic acid] | – | < 100 nM
Cc1nc(C#Cc2cccc(-c3nn(-c4nc(C(=O)O)cs4)c(CCC4CC4)c3Cc3ccc(S(N)(=O)=O)c(F)c3)c2)cs1 [Compound 243, 2-(5-(2-cyclopropylethyl)-4-(3-fluoro-4-sulfamoylbenzyl)-3-(3-((2-methylthiazol-4-yl)ethynyl)phenyl)-1H-pyrazol-1-yl)thiazole-4-carboxylic acid] | – | < 100 nM
NS(=O)(=O)c1ccc(Cc2c(-c3cccc(C#Cc4ccc(C5CC5)s4)c3)nn(-c3nc(C(=O)O)cs3)c2CCC2CC2)cc1F [Compound 244, 2-(5-(2-cyclopropylethyl)-3-(3-((5-cyclopropylthiophen-2-yl)ethynyl)phenyl)-4-(3-fluoro-4-sulfamoylbenzyl)-1H-pyrazol-1-yl)thiazole-4-carboxylic acid] | – | 100 to 1000 nM
NS(=O)(=O)c1ccc(Cc2c(-c3cccc(C#Cc4ccc(C5CCC5)s4)c3)nn(-c3nc(C(=O)O)cs3)c2CC2CC2)cc1F [Compound 245, 2-(3-(3-((5-cyclobutylthiophen-2-yl)ethynyl)phenyl)-5-(cyclopropylmethyl)-4-(3-fluoro-4-sulfamoylbenzyl)-1H-pyrazol-1-yl)thiazole-4-carboxylic acid] | – | 100 to 1000 nM
NS(=O)(=O)c1ccc(Cc2c(-c3cccc(C#Cc4ccc(C5CCC5)s4)c3)nn(-c3nc(C(=O)O)cs3)c2CCC2CC2)cc1F [Compound 246, 2-(3-(3-((5-cyclobutylthiophen-2-yl)ethynyl)phenyl)-5-(2-cyclopropylethyl)-4-(3-fluoro-4-sulfamoylbenzyl)-1H-pyrazol-1-yl)thiazole-4-carboxylic acid] | – | 100 to 1000 nM
Cc1ccc(C#Cc2cccc(-c3nn(-c4nc(C(=O)O)co4)c(CC4CC4)c3Cc3ccc(S(N)(=O)=O)c(F)c3)c2)s1 [Compound 247, 2-(5-(cyclopropylmethyl)-4-(3-fluoro-4-sulfamoylbenzyl)-3-(3-((5-methylthiophen-2-yl)ethynyl)phenyl)-1H-pyrazol-1-yl)oxazole-4-carboxylic acid] | – | < 100 nM
Cc1ccc(C#Cc2cccc(-c3nn(-c4nc(C(=O)O)cs4)c(CCCC4CC4)c3Cc3ccc(S(N)(=O)=O)c(F)c3)c2)s1 [Compound 248, 2-(5-(3-cyclopropylpropyl)-4-(3-fluoro-4-sulfamoylbenzyl)-3-(3-((5-methylthiophen-2-yl)ethynyl)phenyl)-1H-pyrazol-1-yl)thiazole-4-carboxylic acid] | – | 100 to 1000 nM
Cc1ccc(C#Cc2cc(-c3nn(-c4nc(C(=O)O)cs4)c(CC4CC4)c3Cc3ccc(S(N)(=O)=O)c(F)c3)ccc2F)s1 [Compound 249, 2-(5-(cyclopropylmethyl)-3-(4-fluoro-3-((5-methylthiophen-2-yl)ethynyl)phenyl)-4-(3-fluoro-4-sulfamoylbenzyl)-1H-pyrazol-1-yl)thiazole-4-carboxylic acid] | – | < 100 nM
